Source: patent publication US8445207B2, “Genes based on thalidomide, valproic acid and methotrexate treatment for screening of drug inducing teratogenicity and screening method using thereof” (priority 2009, dated 2013)

Legend:
[1] = tested on: JEG-3 (human placental choriocarcinoma cell line); assay: Real-time RT-PCR quantification of gene expression in drug-treated JEG-3; assay type: cell-based
Protocol: My IQ Real-Time PCR (Bio-Rad, USA) was performed to quantify the expressions of those genes.
Particularly, cDNA was synthesized using oligo dT primer and Superscript kit (Omniscipt™ kit, Qiagen, Co., USA) by reverse transcription. 0.2 μl of the cDNA, 3.8 μl of water, 0.5 μg of a sense primer, 0.5 μg of an antisense primer, and […] of SYBR Green I supermix (Bio-Rad, USA) were mixed, which was placed in a PCR tube, followed by real-time RT-PCR in My IQ real-time PCR machine as follows: Step 1: 95°, 3 minutes; Step 2 (45 cycles): Step 2-1: 95°, 10 seconds; Step 2-2: 55-65° 45 seconds; Step 3: 95°, 1 minute; Step 4: 55°, 1 minute; Step 5 (80 cycles): 55°, 10 seconds. SYBR green I (Bio-Rad, USA) staining was performed to quantify the PCR product. SYBR I staining is the staining method using double stranded DNA binding. So, the more double stranded DNA is generated during PCR, the stronger the fluorescence intensity becomes. First, target gene and endogenous control (GAPDH) primers were added to SYBR green master mix, followed by PCR. Then, primer optimization was performed to determine a proper concentration. Synthesized cDNA and each primer were mixed (Table 4), to which SYBR master mix was added, followed by PCR.

[2] = tested on: JEG-3 (human placental choriocarcinoma cell line); assay: Oligo microarray gene expression in drug-treated JEG-3 (Cy5 treated / Cy3 control); assay type: cell-based
Protocol: Thalidomide, valproic acid, and methotrexate were treated to human placental choriocarcinoma cell line at the concentrations determined above (Inhibition concentration: the concentration that can kill approximately 30% of the total cells, that is the concentration of 70% viability, IC30). mRNA was extracted from the drug treated cell line, followed by synthesis of cDNA which was labeled with Cy5. The non-treated control was labeled with Cy3. The fluorescence labeled cDNA was hybridized with 41K (thalidomide), 44K (valproic acid, methotrexate) human whole genome oligomicroarray chips (Agilent, USA), followed by fluorescent image scanning to analyze gene expression patterns (see FIG. 4). Volcano Plot of each substance was also attached. Y axis indicates probability (generally converted by −log 10). X axis indicates differential expression, which is presented by log-ratio.
Total RNA was separated from the treated cell by using trizol reagent (Invitrogen Life Technologies, USA) according to the manufacture's instructions, followed by purification using RNeasy mini kit (Qiagen, USA). Genomic DNA was eliminated during RNA purification using RNase-free DNase set (Qiagen, USA).
30 μg of the total RNA obtained above and 2 μg (1 μg/μl) of oligo (dT) primer were mixed, followed by reaction at 65° C. for 10 minutes. Annealing was performed in ice right after the reaction. Reagents were prepared as shown in Table 1 for reverse transcription of the annealed RNA.
The total RNA separated from the control group JEG-3 cells was labeled with Cy3-dUTP (green) and the total RNA separated from the experiment group JEG-3 cells treated with thalidomide, valproic acid and methotrexate was labeled with Cy5-dUTP (red). At this time, the two samples were mixed and purified by Microcon YM-30 column (Millipore, USA).
Hybridization and washing were performed by the manufacturer's (GenoCheck, Korea) instructions. Particularly, hybridization was performed in a 62° C. oven for 12 hours. As a DNA microarray chip, 44 k whole human genome oligo microarray (Agilent, USA) was used. After washing (2 minutes with 2×SSC/0.1% SDS, three minutes with 1×SSC, 2 minutes with 0.2×SSC), the slide was dried by centrifugation at 800 rpm for 3 minutes.
Hybridization image on the slide was scanned with Genepix 4000B (Axon Instruments, USA). Fluorescence image of the chip on which non-hybridized genes had been washed out was obtained by using laser fluorescence scanner. Green fluorescence image indicates the activity of gene specifically expressed in the control group and red fluorescence image indicates the activity of gene specifically expressed in the experimental group. […] Scanned image was analyzed by using GenePix 4.1 software (Axon Instruments, USA) to calculate gene expression rate.

[3] = out of 21797 (thalidomide), 21921 (valproic acid), 24006 (methotrexate) genes
[4] = treated at IC30, up-regulated gene, (k) common gene which has no function

Compound: O=C1CCC(N2C(=O)c3ccccc3C2=O)C(=O)N1 (stereo not shown) [THA, thalidomide]
- Real time PCR (Relative ratio), KIAA0310 ([1]; GenBank AB002308): 4.78
- Real time PCR (Relative ratio), ATP10B ([1]; GenBank AB018258): 4.7689
- Real time PCR (Relative ratio), TTF2 ([1]; GenBank AB209845): 1.6625
- Real time PCR (Relative ratio), TncRNA ([1]; GenBank AF001893): 5.9587
- Real time PCR (Relative ratio), C4orf19 ([1]; GenBank AK001879): 1.6143
- Real time PCR (Relative ratio), CYP19A1 ([1]; GenBank AK023571): 2.6408
- Real time PCR (Relative ratio), SLC40A1 ([1]; GenBank AK023574): 2.1558
- Real time PCR (Relative ratio), ABTB2 ([1]; GenBank AK095632): 1.4359
- Real time PCR (Relative ratio), TUBB3 ([1]; GenBank AK122757): 2.8114
- Real time PCR (Relative ratio), MGC27016 ([1]; GenBank AK125877): 2.3438
- Real time PCR (Relative ratio), GLCCI1 ([1]; GenBank AK126731): 1.5509
- Real time PCR (Relative ratio), TFCP2L4 ([1]; GenBank BC036890): 2.5111
- Real time PCR (Relative ratio), RGS2 ([1]; GenBank BC042755): 3.4255
- Real time PCR (Relative ratio), SIAT7A ([1]; GenBank BC063830): 2.5019
- Real time PCR (Relative ratio), B7-H4 ([1]; GenBank BX648021): 0.5
- Real time PCR (Relative ratio), COBLL1 ([1]; GenBank BX649112): 1.5201
- Real time PCR (Relative ratio), CGA ([1]; GenBank NM_000735): 2.9963
- Real time PCR (Relative ratio), PARP1 ([1]; GenBank NM_001618): 0.805
- Real time PCR (Relative ratio), SERPINB9 ([1]; GenBank NM_004155): 2.2852
- Real time PCR (Relative ratio), ST8SIA4 ([1]; GenBank NM_005668): 1.8635
- Real time PCR (Relative ratio), ABL1 ([1]; GenBank NM_007313): 0.6781
- Real time PCR (Relative ratio), GRLF1 ([1]; GenBank NM_024342): 0.689
- Real time PCR (Relative ratio), LGP1 ([1]; GenBank NM_032484): 0.4867
- Real time PCR (Relative ratio), NCOA3 ([1]; GenBank NM_181659): 2.9283
- Real time PCR (Relative ratio), SR140 ([1]; GenBank XM_031553): 0.6423
- Real time PCR (Relative ratio), SLC7A8 ([1]; GenBank Y18483): 1.6327
- cDNA microarray (Cy3/Cy5 ratio), KIAA0310 ([2]; GenBank AB002308): 1.94
- cDNA microarray (Cy3/Cy5 ratio), ATP10B ([2]; GenBank AB018258): 3.11
- cDNA microarray (Cy3/Cy5 ratio), TTF2 ([2]; GenBank AB209845): 1.58
- cDNA microarray (Cy3/Cy5 ratio), TncRNA ([2]; GenBank AF001893): 1.5
- cDNA microarray (Cy3/Cy5 ratio), C4orf19 ([2]; GenBank AK001879): 1.51
- cDNA microarray (Cy3/Cy5 ratio), CYP19A1 ([2]; GenBank AK023571): 2.03
- cDNA microarray (Cy3/Cy5 ratio), SLC40A1 ([2]; GenBank AK023574): 1.5
- cDNA microarray (Cy3/Cy5 ratio), ABTB2 ([2]; GenBank AK095632): 1.78
- cDNA microarray (Cy3/Cy5 ratio), TUBB3 ([2]; GenBank AK122757): 2.03
- cDNA microarray (Cy3/Cy5 ratio), MGC27016 ([2]; GenBank AK125877): 1.51
- cDNA microarray (Cy3/Cy5 ratio), GLCCI1 ([2]; GenBank AK126731): 1.56
- cDNA microarray (Cy3/Cy5 ratio), TFCP2L4 ([2]; GenBank BC036890): 1.61
- cDNA microarray (Cy3/Cy5 ratio), RGS2 ([2]; GenBank BC042755): 1.78
- cDNA microarray (Cy3/Cy5 ratio), SIAT7A ([2]; GenBank BC063830): 2.54
- cDNA microarray (Cy3/Cy5 ratio), B7-H4 ([2]; GenBank BX648021): 0.52
- cDNA microarray (Cy3/Cy5 ratio), COBLL1 ([2]; GenBank BX649112): 1.85
- cDNA microarray (Cy3/Cy5 ratio), CGA ([2]; GenBank NM_000735): 3.04
- cDNA microarray (Cy3/Cy5 ratio), PARP1 ([2]; GenBank NM_001618): 0.66
- cDNA microarray (Cy3/Cy5 ratio), SERPINB9 ([2]; GenBank NM_004155): 1.73
- cDNA microarray (Cy3/Cy5 ratio), ST8SIA4 ([2]; GenBank NM_005668): 1.69
- cDNA microarray (Cy5 treated / Cy3 control ratio), ABL1 ([2]; GenBank NM_007313): 0.65
- cDNA microarray (Cy3/Cy5 ratio), GRLF1 ([2]; GenBank NM_024342): 0.55
- cDNA microarray (Cy3/Cy5 ratio), LGP1 ([2]; GenBank NM_032484): 0.58
- cDNA microarray (Cy3/Cy5 ratio), NCOA3 ([2]; GenBank NM_181659): 1.64
- cDNA microarray (Cy3/Cy5 ratio), SR140 ([2]; GenBank XM_031553): 0.5
- cDNA microarray (Cy3/Cy5 ratio), SLC7A8 ([2]; GenBank Y18483): 1.71
- Ratio of intermediate value, IGF2 ([2]; Genbank AK074614, drug at IC30): 0.64
- Ratio of intermediate value, GRLF1 ([2]; Genbank BI494022, NM_024342, drug at IC30): 0.55
- Ratio of intermediate value, B7-H4 ([2]; Genbank BX648021, drug at IC30): 0.52
- Ratio of intermediate value, PARP1 ([2]; Genbank NM_001618, drug at IC30): 0.66
- Ratio of intermediate value, NRP1 ([2]; Genbank NM_003873, drug at IC30): 0.62
- Ratio of intermediate value, HAND1 ([2]; Genbank NM_004821, drug at IC30): 0.61
- Ratio of intermediate value, ABL1 ([2]; Genbank NM_007313, drug at IC30): 0.65
- Ratio of intermediate value, LGP1 ([2]; Genbank NM_032484, drug at IC30): 0.58
- Ratio of intermediate value, SR140 ([2]; Genbank XM_031553, drug at IC30): 0.50
- genes down-regulated (ratio of intermediate value less than 0.666) ([2]; JEG-3, drug at IC30, 48 hours): 0.34%
- genes up-regulated (ratio of intermediate value more than 1.5) ([2]; JEG-3, drug at IC30, 48 hours): 0.95%
- number of genes down-regulated [2, 3]: 74
- number of genes up-regulated [2, 3]: 208
- Ratio of intermediate value, gene ATP10B (AB018258, ATPase, Class V, type 10B) [2, 4]: 3.11
- Ratio of intermediate value, gene BQ186674 (cDNA clone UI-E-EJ1-ajr-f-10-0-UI, Hypothetical gene supported by AF086204) [2, 4]: 1.60
- Ratio of intermediate value, gene BX111592 (Transcribed locus, moderately similar to XP_066443.6 PREDICTED: similar to paraneoplastic antigen like 6A) [2, 4]: 2.17
- Ratio of intermediate value, gene CGA (NM_000735, Glycoprotein hormones, alpha polypeptide) [2, 4]: 3.04
- Ratio of intermediate value, gene COBLL1 (BX649112, COBL-like 1) [2, 4]: 1.85
- Ratio of intermediate value, gene CYP19A1 (AK023571, Cytochrome P450, family 19, subfamily A, polypeptide 1) [2, 4]: 2.03
- Ratio of intermediate value, gene FLJ11017 (AK001879, Hypothetical protein FLJ11017) [2, 4]: 1.51
- Ratio of intermediate value, gene GLCCI1 (AK126731, Glucocorticoid induced transcript 1) [2, 4]: 1.56
- Ratio of intermediate value, gene KIAA0310 (AB002308, KIAA0310) [2, 4]: 1.94
- Ratio of intermediate value, gene MGC27016 (AK125877, Hypothetical protein MGC27016) [2, 4]: 1.51
- Ratio of intermediate value, gene NCOA3 (NM_181659, Nuclear receptor coactivator 3) [2, 4]: 1.64
- Ratio of intermediate value, gene RGS2 (BC042755, Regulator of G-protein signalling 2, 24 kDa) [2, 4]: 1.78
- Ratio of intermediate value, gene SIAT7A (BC063830, ST6 (alpha-N-acetyl-neuraminyl-2,3-beta-galactosyl-1,3)-N-acetylgalactosaminide alpha-2,6-sialyltransferase 1) [2, 4]: 2.54
- Ratio of intermediate value, gene SIAT8D (NM_005668, ST8 alpha-N-acetyl-neuraminide alpha-2,8-sialyltransferase 4) [2, 4]: 1.69
- Ratio of intermediate value, gene SLC7A8 (Y18483, Solute carrier family 7 (cationic amino acid transporter, y+ system), member 8) [2, 4]: 1.71
- Ratio of intermediate value, gene SLC40A1 (AK023574, Solute carrier family 40 (iron-regulated transporter), member 1) [2, 4]: 1.50
- Ratio of intermediate value, gene TFCP2L4 (BC036890, Grainyhead-like 3 (Drosophila)) [2, 4]: 1.61
- Ratio of intermediate value, gene TTF2 (AB209845, Transcription termination factor, RNA polymerase II) [2, 4]: 1.58
- Ratio of intermediate value, gene TUBB3 (AK122757, Tubulin, beta 3) [2, 4]: 2.03
- Ratio of intermediate value, gene TncRNA (AF001893, Trophoblast-derived noncoding RNA) [2, 4]: 1.50
